Measured values published in US5756066A, “Iodine-containing peptides” (Schering Aktiengesellschaft, priority 1995, dated 1998).

Tests used:
[1] = Blood level in the rat after one-time intravenous injection; format: in vivo; details: one-time i.v. injection, Ultravist 300 mg I/kg, example 4c 200 mg I/kg, especially first 10 minutes, average of three animals, FIG. 1
Description: The blood level in the rat was determined after one-time intravenous injection of 300 mg of I/kg of body weight of Ultravist®[]. and 200 mg of I/kg of body weight of the compound of example 4c [.diamond.]. The data represent the average value from three animals each.

[2] = Elimination from and retention in the body of the rat; format: in vivo

| Molecule | blood concentration over time, standardized to the administered dose [1] | route of elimination [2] | elimination from the body ([2]; dose 100 mg of I/kg) | retention in the organs liver, kidney and spleen as well as in the remainder of the body ([2]; dose 100 mg of I/kg, 14 days after administration) |
| --- | --- | --- | --- | --- |
| COCC(=O)Nc1c(I)c(C(=O)NCC(O)CO)c(I)c(C(=O)N(C)CC(O)CO)c1I (centres unmarked) [Ultravist, reference compound] | very much more quickly | – | – | – |
| Octatetracontakis-{3-sodium carboxylatoformylamino-5-(2,3-dihydroxypropylcarbamoyl)-2,4,6-triiodobenzoyl} derivative of the lysine-alanine copolymer (K5)8 K4 K2 K-A--OH [Example 4] | remains very much longer in the blood space | mainly through the kidney | complete elimination | 0.36 % of the dose |
